These results are taken from patent publication US10085998B2, “Salts of potassium ATP channel openers and uses thereof” (Essentialis, Inc., priority 2006, dated 2018).

Entries after “also recorded” stand apart in the source; their conditions may differ. Counter-ions that a name gives are not always drawn.

The nature of series [1]: Excipient compatibility study for diazoxide choline salt. It is filed as physicochemical. The following applies: excipient 100 mg + diazoxide choline salt 100 mg.
Series [2] can be described thus: Moisture sorption analysis. The following applies: for Moisture sorption: hygroscopicity: relative humidity scan; for XRPD pattern following the moisture sorption/desorption analysis: after moisture sorption experiment; for Hysteresis upon desorption / hydrate formation: desorption scan. It is filed as physicochemical.
Description: Moisture Sorption Analysis was performed with a Hiden IGAsorp Moisture Sorption Instrument. Samples were first dried at 0% relative humidity at 25° C. until an equilibrium weight was reached, or for a maximum of 4 hours. Samples were then subjected to an isothermal (25° C.) scan from 10-90% relative humidity in steps of 10%. The samples were allowed to equilibrate to an asymptotic weight at each point for a maximum of 4 hours. Following absorption, a desorption scan from 85% relative humidity (at 25° C.) was run in steps of −10%, again allowing a maximum of 4 hours for the samples to equilibrate. The resulting samples after desorption were dried at 80° C. for two hours and analyzed by XRPD.
Series [3] in a line: Form conversion and degradation under thermal stress. The note with it: 60° C.; for Form conversion and degradation under thermal stress (XRPD, DSC): closed, protected from light, 7 and 14 days; for Thermal stability of form: 7 days. Here is the method:
Studies were also conducted to evaluate the likelihood for conversion and degradation under thermal stress.

Series [4] in a line: Slurry studies (inter-conversion of the solid form). The following applies: for Slurry study: conversion of solid form: dichloromethane (CH2Cl2) and toluene, 7 and 14 days; for Slurries: conversion of solid form: 50/50 mixtures of Forms C, D and F in ethyl acetate, acetonitrile and isopropanol, room temperature.
Description: Slurry experiments were performed on each form to determine propensity for conversion and to see if a unique form could be generated.
Series [5] in a line: Solubility screen of diazoxide potassium salt in various solvents. It is filed as physicochemical. The text has this:
Solvents affording poor to fair solubility were used as antisolvents in binary/ternary crystallizations as well as slurry studies. Table 29 summarizes the results of the solubility screen.

The nature of series [6]: Crystallization screening for polymorphic forms (single/binary solvent, fast/slow cooling, XRPD). It counts as physicochemical.
For series [7] the following is noted: pH 2.
Description: (§1) Solubility concentrations were determined using area-percent calculations with HPLC calibration curves.
Another series in a line: physchem. The note with it: thermodynamic from solid.
The mark [8] stands for this setting: 25° C., listed as Potassium diazoxide salt.

Description for physchem: as §1

With `CC1=Nc2ccc(Cl)cc2S(=O)(=O)N1` [Diazoxide Control], the “1 Month 40° C./75% RH % (w/w)” value in series [1] (one-month storage 40° C./75% RH) is listed as 99.0 % (w/w). The “1 Month 50° C. % (w/w)” value in series [1] (one-month storage 50° C.) is on record as 99.4 % (w/w).
On to `CC1=Nc2ccc(Cl)cc2S(=O)(=O)[N-]1.C[N+](C)(C)CCO` [Form A], for which, in series [2] (25° C.), the “Moisture sorption: hygroscopicity” value is “Hygroscopic - deliquesced” and the “Water absorbed at 60% RH” value worked out at 2.4 wt %. Besides, the “XRPD pattern following the moisture sorption/desorption analysis” value in series [2] was “consistent with Form A”. Besides, the “Form conversion and degradation under thermal stress (XRPD, DSC)” value (from here on “Form conversion and degradation”) in series [3] is given as “Started to convert to Form”. Moreover, the “Slurry study: conversion of solid form” value in series [4] (n-heptane) is reported as “conversion to Form B was observed after seven days; also recorded: Converted to Form B after”.
In the case of `CC1=Nc2ccc(Cl)cc2S(=O)(=O)[N-]1.CC1=Nc2ccc(Cl)cc2S(=O)(=O)[N-]1.O.[K+].[K+]` [Form D], the “Moisture sorption: hygroscopicity” value in series [2] (25° C.) is “hygroscopic; also recorded: Hygroscopic -”. For the same compound, the “XRPD pattern following the moisture sorption/desorption analysis” value in series [2] is on record as “consistent with Form D”. Moreover, in series [3], the “Thermal stability of form” value is recorded as “Stable (7 days)”. For the same compound, in series [4], the “Slurries: conversion of solid form” value was “conversion to Form D was observed in all solvents; also recorded: Converted to Form D”.
For `C1COCCO1.CC1=Nc2ccc(Cl)cc2S(=O)(=O)[N-]1.CC1=Nc2ccc(Cl)cc2S(=O)(=O)[N-]1.[K+].[K+]` [Form F], in that order: “hygroscopic”, “consistent with Form D”, “Stable (7 days)” and “conversion to Form D was observed in all solvents; also recorded: Converted to Form D”.
One may read the solubility as the dissolved amount per volume that the medium holds. Read a low solubility as little dissolved substance. Take `CC1=NS(=O)(=O)c2cc(Cl)ccc2N1` [potassium salt of diazoxide]: the “Hysteresis upon desorption / hydrate formation” value in series [2] (25° C.) is “hemihydrate from 0-30% RH and a monohydrate from 35-75% RH”; in series [2] (setting [8]) it was “hemi/monohydrate”. For the same compound, the “Moisture sorption: hygroscopicity” value in series [2] (25° C.) is listed as “hygroscopic”; in series [2] (setting [8]), “deliquescent -”. In addition, in series [2] (25° C.), the “Water absorbed at 60% RH” value worked out at 5.4 wt %. In addition, the “Water absorbed at 90% RH” value in series [2] (25° C., 90% RH) is 38.3 wt %. The “XRPD pattern following the moisture sorption/desorption analysis” value in series [2] is on record as “changed to an alternate crystalline form”. For the same compound, the “Degradation by HPLC after thermal stress” value in series [3] (14 days, gradient area percent assay) is given as “did not show any significant degradation”. Moreover, in series [3], the “Form conversion and degradation” value is on record as “showed unique peaks”. The Conc. in series [5] (solvent Acetone, 55 ° C., 1.6 mg in 4.00 mL) was 400 µg/mL; in series [5] (solvent CH2Cl2, 55 ° C., 1.3 mg in 5.00 mL), 260 µg/mL; in series [5] (solvent DMF, rt, 1.6 mg in 0.25 mL), above 6400 µg/mL; in series [5] (solvent Dioxane, 55 ° C., 1.4 mg in 5.00 mL) it was 280 µg/mL; in series [5] (solvent EtOAc, 55 ° C., 1.8 mg in 5.00 mL) it was 360 µg/mL; in series [5] (solvent EtOH, 55 ° C., 2.2 mg in 0.75 mL), 2930 µg/mL. For the same compound, the Conc. in series [5] (solvent Heptane, 55 ° C., 1.2 mg in 5.00 mL) came out at 240 µg/mL; in series [5] (solvent IPA, 55 ° C., 2.1 mg in 1.00 mL), 2100 µg/mL; in series [5] (solvent IPAc, 55 ° C., 1.7 mg in 5.00 mL), 340 µg/mL; in series [5] (solvent MEK, 55 ° C., 1.5 mg in 5.00 mL) it was 300 µg/mL; in series [5] (solvent MTBE, 55 ° C., 1.8 mg in 5.00 mL), 360 µg/mL; in series [5] (solvent MeCN, 55 ° C., 1.7 mg in 2.00 mL) it was 850 µg/mL. Besides, the Conc. came to 6000 µg/mL in series [5] (solvent MeOH, 55 ° C., 1.5 mg in 0.25 mL); 360 µg/mL in series [5] (solvent THF, 55 ° C., 1.8 mg in 5.00 mL); 280 µg/mL in series [5] (solvent Toluene, 55 ° C., 1.4 mg in 5.00 mL); 300 µg/mL in series [5] (solvent Water, 55 ° C., 1.5 mg in 5.00 mL); 300 µg/mL in series [5] (solvent c-Hexane, 55 ° C., 1.5 mg in 5.00 mL). The Soluble entry in series [5] (solvent Acetone, 55 ° C., at 0.40 mg/mL) is given as “Yes”; in series [5] (solvent CH2Cl2, 55 ° C., at […]) it was “No”; in series [5] (solvent DMF, rt, at >6.40 mg/mL), “Yes”; in series [5] (solvent Dioxane, 55 ° C., at […]) it was “No”; in series [5] (solvent EtOAc, 55 ° C., at […]) it was “No”; in series [5] (solvent EtOH, 55 ° C., at […]) it was “Yes”. For the same compound, the Soluble entry is recorded as “No” in series [5] (solvent Heptane, 55 ° C., at 0.24 mg/mL); “Yes” in series [5] (solvent IPA, 55 ° C., at […]); “No” in series [5] (solvent IPAc, 55 ° C., at […]); “Partially” in series [5] (solvent MEK, 55 ° C., at 0.30 mg/mL); “No” in series [5] (solvent MTBE, 55 ° C., at […]); “Yes” in series [5] (solvent MeCN, 55 ° C., at 0.85 mg/mL). Moreover, the Soluble entry in series [5] (solvent MeOH, 55 ° C., at 6.00 mg/mL) is listed as “Yes”; in series [5] (solvent THF, 55 ° C., at […]) it was “Partially”; in series [5] (solvent Toluene, 55 ° C., at […]), “No”; in series [5] (solvent Water, 55 ° C., at 0.30 mg/mL), “No”; in series [5] (solvent c-Hexane, 55 ° C., at 0.30 mg/mL) it was “No”. Besides, the Form result in series [6] (XRPD, single-solvent, fast-cooling, MeCN, 42.40 mg/mL, 80 ° C.) is listed as “C +”. Besides, the Precipitate entry in series [6] (binary-solvent, fast-cooling, McCN 0.6 mL (dissolved at 80° C.), anti-solvent CH2Cl2 1.0 mL) was “Yes”; in series [6] (binary-solvent, fast-cooling, McCN 0.6 mL (dissolved at 80° C.), anti-solvent Dioxane 6.0 mL) it was “Yes”; in series [6] (binary-solvent, fast-cooling, McCN 0.6 mL (dissolved at 80° C.), anti-solvent EtOAc 6.0 mL), “Yes”; in series [6] (binary-solvent, fast-cooling, McCN 0.6 mL (dissolved at 80° C.), anti-solvent Heptane 2.0 mL) it was “Yes”; in series [6] (binary-solvent, fast-cooling, McCN 0.6 mL (dissolved at 80° C.), anti-solvent IPAc 3.0 mL), “Yes”; in series [6] (binary-solvent, fast-cooling, McCN 0.6 mL (dissolved at 80° C.), anti-solvent MTBE 1.0 mL), “Yes”. Besides, the Precipitate result is “No/Evap” in series [6] (binary-solvent, fast-cooling, McCN 0.6 mL (dissolved at 80° C.), anti-solvent THF 6.0 mL); “Yes” in series [6] (binary-solvent, fast-cooling, McCN 0.6 mL (dissolved at 80° C.), anti-solvent Toluene 1.0 mL); “Yes” in series [6] (binary-solvent, fast-cooling, McCN 0.6 mL (dissolved at 80° C.), anti-solvent c-Hexane 2.0 mL); “No/Evap” in series [6] (single-solvent, fast-cooling, Acetone, 10.35 mg/mL, 55 ° C.); “Yes” in series [6] (single-solvent, fast-cooling, EtOAc, 3.52 mg/mL, 75 ° C.); “Yes” in series [6] (single-solvent, fast-cooling, IPA, 75.67 mg/mL, 62 ° C.). The Precipitate entry in series [6] (single-solvent, fast-cooling, MeCN, 42.40 mg/mL, 80 ° C.) was “Yes”; in series [6] (single-solvent, fast-cooling, Water, 13.73 mg/mL, 95 ° C.) it was “Yes”; in series [6] (single-solvent, fast-cooling, i-AmOH, 65.67 mg/mL, 73 ° C.), “Yes”; in series [6] (single-solvent, fast-cooling, t-AmOH, 8.76 mg/mL, 95 ° C.), “Yes”; in series [6] (single-solvent, slow-cooling, IPA, 71.67 mg/mL, 80 ° C.), “No/Evap”; in series [6] (single-solvent, slow-cooling, MeCN, 45.60 mg/mL, 80 ° C.) it was “Yes”. In series [6] (single-solvent, slow-cooling, i-AmOH, 68.67 mg/mL, 80 ° C.), the Precipitate entry was “Yes”. For the same compound, the “XRPD pattern of the solids obtained after the solubility analysis” value in series [7] was “changed back to the free form diazoxide material”. Further, the solubility amounted to 9.9 mg/mL in “physchem” (pH 2, aqueous buffer); 14.4 mg/mL in the series “physchem” (pH 7, aqueous buffer); 43 mg/mL in the series “physchem” (pH 12, aqueous buffer). Further, the “Slurry study: conversion of solid form” value in series [4] (n-heptane) was “no propensity of inter-conversion”. In addition, the “Degradation by HPLC after slurry study” value in series [4] (n-heptane, dichloromethane, toluene, gradient area percent assay) was “did not show any significant degradation”.
For `CC1=Nc2ccc(Cl)cc2S(=O)(=O)[N-]1.[Na+]` [sodium salt of diazoxide], in series [2] (25° C.), the “Hysteresis upon desorption / hydrate formation” value is “possible hydrate formation”, the “Moisture sorption: hygroscopicity” value is “hygroscopic” and the “Water absorbed at 60% RH” value is 1.2 wt %. Further, the “Moisture sorption: hygroscopicity” value in series [2] (25° C., listed as Sodium diazoxide salt) was “deliquescent -”. Besides, the “Water absorbed at 80% RH” value in series [2] (25° C., 80% RH) is on record as 6.6 wt %. Moreover, the “Form conversion and degradation” value in series [3] was “little propensity to change form or degrade”. Moreover, in series [4] (n-heptane), the “Slurry study: conversion of solid form” value was “no propensity of inter-conversion”.
